US11213514B2, “Alpha-1-adrenergic receptor agonist therapy” (The Regents of the University of California, priority 2016, dated 2022)
Where “and” joins values, the source holds several entries; their conditions need not be identical. Equal values may be shown once.

How the values were obtained:
[1] = test system: mice lacking the α1A-AR (AKO); assay: Doxorubicin cardiotoxicity in mice lacking the α1A-AR (survival, anatomy, conscious echocardiography)
From the text: FIGS. 2A-2B. […] On Day 7 the mice underwent echocardiography prior to sacrifice. FIG. 2A. Fractional shortening, a measure of contractile function, with representative M-mode echocardiogram images. […] FIG. 2B. Heart sections from some of these mice (i.e. wild type mice) stained with Masson Trichrome. Fibrosis (weighted average collagen content) was quantified using Aperio ImageScope software.
C57Bl6J mice were from Jackson Laboratory or from our breeding colony. α1A-AR knockout (AKO) mice from Paul C. Simpson were congenic on a C57Bl6J background for at least 10 generations and produced by heterozygous breeding in our animal facility. 8-12 week old males were used in all experiments. Female Sprague-Dawley rats with newborn litters were from Charles River. Animal care and experimental protocols were approved by the UNC IACUC and complied with Guide for the Care and the use of Laboratory Animals (National Research Council Committee for the Update of the Guide for the Care and Use of Laboratory Animals, 2011).
On Day 7, mice underwent echocardiography and were sacrificed by cervical dislocation after an overdose of isoflurane.
Conscious transthoracic echocardiography was performed on loosely restrained mice in the McAllister Heart Institute Animal Models Core using a VisualSonics Vevo 2100 ultrasound system (VisualSonics, Inc., Toronto, Ontario, Canada). Two-dimensional and M-mode echocardiography were performed in the parasternal long-axis view at the level of the papillary muscle. Left ventricular systolic function was assessed by fractional shortening (% FS=[(LVEDD−LVESD)/LVEDD]×100). Reported values represent the average of at least five cardiac cycles per mouse. Sonographers and investigators were blinded to mouse treatment condition during image acquisition and analysis.

[2] = test system: mouse heart; assay: Pressure overload cardiomyopathy caused by transverse aortic constriction; assay type: in vivo; conditions: mice, TAC day 0, osmotic minipumps from 4 weeks; both doses 20 ug/kg/d and 200 ug/kg/d; day 55
Experimental: FIG. 8. […] Cardiac function was measured before TAC, and every 2 weeks, using echocardiography.

[3] = test system: wild type mice; assay: Indexed heart weight after 7-day gavage treatment in uninjured mice; assay type: in vivo, mouse; conditions: for Body weight, final / Heart weight / Heart weight/tibia length / Heart/body weight: uninjured wild type mice, 7 days
Experimental: (§1) FIGS. 1A-1C. […] FIG. 1A. Blood pressure (BP) and heart rate (HR) were measured non-invasively in male mice for 10 consecutive days using a CODA Volume Pressure Recording tail cuff system (Kent Scientific). All daily values represent the average of at least 20 cuff inflations. Mice were acclimatized to the apparatus for the first 5 days, during which no drug was administered. […] FIG. 1B. […] Heart weight (HW, in mg) was indexed to tibia length (TL, in mm). FIG. 1C. Quantitative RT-PCR was performed using heart tissue snap frozen at the time of sacrifice. Target transcripts (ANP=atrial natriuretic peptide; MHCβ=myosin heavy chain beta; α-skAct=alpha skeletal actin) were quantified relative to two standard transcripts (Polr2a=DNA-directed RNA polymerase II, subunit A; TBP=TATA-binding protein).

[4] = test system: pigs; conditions: 10 μg/kg; cited from earlier work
[5] = test system: neonatal rat ventricular myocytes; assay: Myocyte death caused by oxidative stress with H2O2; assay type: cell-based; conditions: neonatal rat ventricular myocytes (FIG. 7)
[6] = test system: wild type mice; assay: Tail cuff blood pressure and heart rate in uninjured mice; assay type: in vivo, mouse; conditions: any dose 1-100 μg/kg/day, gavage twice daily for 5 days
Experimental: as §1
Untreated mice were trained on the tail cuff apparatus daily for 5 days.
Tail cuff blood pressure (BP) and heart rate (HR) were obtained on awake mice by repeated measurements using a CODA Volume Pressure Recording tail cuff system (Kent Scientific).2 Mice were trained to the apparatus for 5 days prior to data collection. Systolic BP and HR measurements represent the average of at least 20 tail cuff inflations per mouse each afternoon.

[7] = test system: atrial natriuretic peptide, beta myosin heavy chain, alpha-skeletal actin transcripts; assay: qRT-PCR of molecular markers of hypertrophy in mouse hearts; assay type: in vivo; conditions: hearts of mice treated with dabuzalgron
Experimental: as §1
We used qRT-PCR to assay traditionally accepted molecular markers of hypertrophy in the hearts of mice treated with dabuzalgron. There was no change in the transcript abundance of atrial natriuretic peptide, beta myosin heavy chain, or alpha-skeletal actin. (FIG. 1C)
Total RNA was isolated from cells and tissue (QiagenRNeasy Plus mini kit #74134) and analyzed using a NanoDrop (ThermoScientific). For qRT-PCR, one […]g of RNA was reverse transcribed using High Capacity cDNA Reverse Transcription Kit (Life Technologies #4368814). Two step qRT-PCR reactions contained 2% of the cDNA product. All reactions were performed in triplicate in a Roche 480 Light Cycler. Relative quantitation of PCR products used the ΔΔCt method relative to two validated reference genes (Tbp and Polr2a). Similar efficiencies were confirmed for all primers. All probes and primers were from Roche.

[8] = any dose 1-100 μg/kg/day, gavage twice daily for 7 days
[9] = α1A-KO mice, Dox 20 mg/kg i.p. + dabuzalgron 20 μg/kg/d gavage 7 days
[10] = α1A-KO mice, Dox + 1240 20 μg/kg/d, Day 7 echocardiography

COc1cccc2c1C(=O)c1c(O)c3c(c(O)c1C2=O)C[C@@](O)(C(=O)CO)C[C@@H]3O[C@H]1C[C@H](N)[C@H](O)[C@H](C)O1 [DOX, doxorubicin]
fractional shortening, DOX-treated AKO vs DOX-treated WT mice ([1]; mouse, in vivo): significantly lower | 7-day survival ([1]; α1A-KO mice, Dox 20 mg/kg i.p. + vehicle gavage 7 days): 38% and 50% | 7-day survival ([1]; α1A-KO mice, Dox 20 mg/kg i.p. + vehicle gavage 7 days, listed as Dox): 38%

Cc1c(OCC2=NCCN2)ccc(Cl)c1NS(C)(=O)=O [dabuzalgron, N-[6-chloro-3-(4,5-dihydro-1H-imidazol-2-ylmethoxy)-2-methylphenyl]methanesulfonamide]
cardiac function (fractional shortening) compared with vehicle [2]: significant improvement | change in body weight [3, 8]: no measurable change | change in heart weight [3, 8]: no measurable change | Body weight, final ([3]; 0.2 μg/kg/day gavage): 25.3 ± 0.4 g | Heart weight ([3]; 0.2 μg/kg/day gavage): 106 ± 4 mg | Heart weight/tibia length ([3]; 0.2 μg/kg/day gavage): 6.1 ± 0.3 mg/mm | Heart/body weight ([3]; 0.2 μg/kg/day gavage): 0.42 ± 0.01% | Body weight, final ([3]; 2 μg/kg/day gavage): 25.9 ± 0.8 g | Heart weight ([3]; 2 μg/kg/day gavage): 106 ± 4 mg | Heart weight/tibia length ([3]; 2 μg/kg/day gavage): 6.1 ± 0.2 mg/mm | Heart/body weight ([3]; 2 μg/kg/day gavage): 0.41 ± 0.02% | Body weight, final ([3]; 20 μg/kg/day gavage): 27.3 ± 1.1 g | Heart weight ([3]; 20 μg/kg/day gavage): 110 ± 4 mg | Heart weight/tibia length ([3]; 20 μg/kg/day gavage): 5.9 ± 0.2 mg/mm | Heart/body weight ([3]; 20 μg/kg/day gavage): 0.41 ± 0.01% | Body weight, final ([3]; 200 μg/kg/day gavage): 27.4 ± 1.6 g | Heart weight ([3]; 200 μg/kg/day gavage): 113 ± 6 mg | Heart weight/tibia length ([3]; 200 μg/kg/day gavage): 6.1 ± 0.3 mg/mm | Heart/body weight ([3]; 200 μg/kg/day gavage): 0.41 ± 0.01% | effect on BP [4]: no effect | myocyte death caused by oxidative stress with H2O2 [5]: prevents | HR vs vehicle [6]: no difference | systolic BP vs vehicle [6]: no difference | transcript abundance of alpha-skeletal actin [7]: no change | transcript abundance of atrial natriuretic peptide [7]: no change | transcript abundance of beta myosin heavy chain [7]: no change | effect on reduction in contractile function after DOX ([1]; AKO mice): not rescued | effect of dabuzalgron on survival after DOX ([1]; AKO mice, DOX 20 mg/kg i.p., dabuzalgron 10 μg/kg twice daily 7 days): unaffected | 7-day survival [1, 9]: 50% | Body Wt Day 7 [1, 9]: 26.4 ± 1.2 g | HW/BW [1, 9]: 0.39 ± 0.01 % | HW/TL [1, 9]: 5.6 ± 0.2 mg/mm | Heart Wt [1, 9]: 101 ± 5 mg | Lung Wt/TL [1, 9]: 5.1 ± 0.2 mg/mm | FS (Fractional Shortening) [1, 10]: 42 ± 2% | HR (Heart Rate) [1, 10]: 618 ± 19 beats per minute
